Laboratory results taken from PMC10536004, “Gallation and B-Ring Dihydroxylation Increase Green Tea Catechin Residence Time in Plasma by Differentially Affecting Tissue-Specific Trafficking: Compartmental Model of Catechin Kinetics in Healthy Adults” (Nutrients, 2023).
Like-named read-outs stand apart in the source and are kept apart here.

Columns and labels:
[1] = system: nonalcoholic steatohepatitis; parameters: method as in PMID 32688217; conditions: obese mice, equal doses in diet; cited from earlier work
[2] = Compartmental model of catechin kinetics from plasma and urine pharmacokinetic data after ingestion of GTE confection; assay type: in vivo, healthy adults
Source text: Data for the present study were obtained from our prior investigation of the pharmacokinetics of green tea polyphenols in healthy adults. The study protocol was approved by the Biomedical Institutional Review Board at Ohio State University (#2017H0246) and registered at ClinicalTrials.gov (NCT03413735). In brief, 19 healthy adults (10 males and 9 females; 27 ± 2 y; 22 ± 0 kg/m^2) who were normotensive (systolic blood pressure, 112.1 ± 2.3 mmHg and diastolic blood pressure, 72.5 ± 1.6 mmHg) normoglycemic (fasting glucose, 92.3 ± 1.8 mg/dL) and normolipidemic (total cholesterol, 181.1 ± 7.8 mg/dL and triglyceride 61.7 ± 7.5 mg/dL) completed the study in the Columbus, Ohio area. Participants were non-smokers, non-users of dietary supplements, non-regular tea drinkers (<2 cups/wk), consumed <3 alcoholic drinks/d, non-pregnant or non-lactating, not using any medications or antibiotics, and had no history of gastrointestinal disorders or surgeries.
Complete details of the pharmacokinetic study were reported in [24]. In brief, participants abstained from polyphenol-rich foods for 3 d. In the fasting state (10–12 h) on day 4, participants voided their bladder, and a catheter was inserted into the antecubital vein to collect blood samples at baseline (0 h) and at 0.25, 0.5, 1, 2, 3, 5, 8, 10, and 12 h post-ingestion of a confection formulated with catechin-rich GTE. Urine was collected in timed intervals from 0–4, 4–8, 8–12, and 12–24 h (Figure 2). Participants received standardized meals at 4 h (11:00), 6 h (13:00) and 12 h (19:00) following confection ingestion. Snacks (e.g., pretzels, crackers) were also provided between 13:00–19:00. All foods were devoid of polyphenols and provided to participants in a eucaloric manner based on estimated energy requirements using the Harris–Benedict formula [25]. Controlled meals were designed to provide 48–55% of energy from carbohydrates, 15–20% from proteins, and 20–35% from fats. No additional foods or beverages, except water, were consumed by participants during the 24 h trial period.
GTE confections were developed as an alternative delivery system for catechins because Americans prefer catechin-deplete black tea over catechin-rich green tea. Confections were prepared in-house and formulated with 84.5% water, 2% sucrose, 6% gelatin, 0.5% citric acid, 6% lime-flavored gelatin, and 1% decaffeinated GTE powder. Confections were prepared within 24 h of the participants’ pharmacokinetics trial and stored at 4 °C. Each participant ingested 2 confections (each 25 g and ~2.5″ cubed), which contained 0.5 g GTE (Sunphenon 90 LB, Taiyo International, Inc., Minneapolis, MN, USA) to provide 445 mg total catechins (290 mg EGCG, 87 mg EGC, 39 mg EC, 28 mg ECG). The catechin content of all confections was confirmed by HPLC analysis. Based on brewed green tea (250 mL prepared with 2.2 g of dry tea leaves) containing ~180 mg total catechins, GTE at 0.5 g approximates 2.5 cups of green tea.
Biospecimen handling and preservation of catechins concentrations in plasma and urine were described. In brief, venous plasma was collected in heparinized tubes, while urine was collected in sterilized containers. Samples were preserved by adding a solution of acetic acid, ascorbic acid, and EDTA, snap-frozen in liquid nitrogen and stored at −80 °C until analyzed. Plasma and urinary catechins (EGCG, EGC, ECG, EC) were analyzed by LC-MS following enzymatic hydrolysis and extraction as reported.
Tissue-specific kinetics of each catechin were determined by model-based compartmental analysis using the Windows version of Simulation, Analysis, and Modeling software (WinSAAM version 3.0.8). The observed data were expressed as a fraction of the ingested dose, i.e., the mass of catechins measured in plasma/urine at specified times divided by the mass of the ingested catechin dose. […]

[3] = in vivo; cited from earlier work
[4] = system: Caco-2 monolayer; conditions: cited from earlier work
[5] = system: pancreatic tumor cells; conditions: cited from earlier work
[6] = in vitro; cited from earlier work
[7] = alkaline pH; cited from earlier work
[8] = 0.5 g GTE confection, n = 19, two-way ANOVA with Tukey's post-hoc
[9] = fractional catabolic rate from plasma, not statistically significant

| Molecule | mean FCR higher in females compared with males [2, 9] [%] | alleviating pathological evidence of nonalcoholic steatohepatitis [1] | fractional catabolic rate (FCR), fraction of compound lost irreversibly from plasma per min, rank order [2, 8] | plasma residence time, rank order [2, 8] | fractional transfer rate from plasma to extravascular tissues, rank order ([2]; n = 19) | fractional transfer rate from plasma to kidneys, rank order ([2]; n = 19) | fractional transfer rate from the liver to plasma, rank order ([2]; n = 19) | fraction present in human plasma following oral administration of green tea [3] [%] | basal-to-apical transport of catechins, rank order ([4]; Caco-2 cell model) | anti-inflammatory activity compared with EGCG [5] | also measured |
| --- | --- | --- | --- | --- | --- | --- | --- | --- | --- | --- | --- |
| Oc1cc(O)c2c(c1)OC(c1ccc(O)c(O)c1)C(O)C2 (single isomer, unassigned; (+)) [catechin, (+)-catechin] | – | effective | – | – | – | – | – | – | – | – | – |
| Oc1cc(O)c2c(c1)O[C@H](c1ccc(O)c(O)c1)[C@H](O)C2 [EC, epicatechin] | 9 | – | EGC > EGCG = EC > ECG | ECG > EC = EGCG > EGC | EGC > EGCG > EC > ECG | EGC = EC > EGCG = ECG | EGC > EC > EGCG = ECG | 1.1 | EC > EGC > ECG ≈ EGCG | – | – |
| Oc1cc(O)c2c(c1)O[C@H](c1cc(O)c(O)c(O)c1)[C@H](O)C2 [EGC, epigallocatechin] | – | – | – | – | – | – | – | 0.58 | – | – | mean FCR higher in females compared with males ([2]; both, human, in vivo): 13%; fractional catabolic rate (FCR), fraction of compound lost irreversibly from plasma per min, rank order ([2]; in vivo): EGC > EGCG = EC > ECG; fractional transfer rate from plasma to extravascular tissues, rank order ([2]; in vivo): EGC > EGCG > EC > ECG; fractional transfer rate from plasma to kidneys, rank order ([2]; in vivo): EGC = EC > EGCG = ECG; fractional transfer rate from the liver to plasma, rank order ([2]; in vivo): EGC > EC > EGCG = ECG; plasma residence time, rank order ([2]; in vivo): ECG > EC = EGCG > EGC; basal-to-apical transport of catechins, rank order [4]: EC > EGC > ECG ≈ EGCG |
| catechin gallate [reference compound] | – | – | – | – | – | – | – | – | – | superior | – |

Now from value to molecule, other results behind:

| mean FCR higher in females compared with males [2, 9] [%] | Molecule | alleviating pathological evidence of nonalcoholic steatohepatitis [1] | fractional catabolic rate (FCR), fraction of compound lost irreversibly from plasma per min, rank order [2, 8] | plasma residence time, rank order [2, 8] | fractional transfer rate from plasma to extravascular tissues, rank order ([2]; n = 19) | fractional transfer rate from plasma to kidneys, rank order ([2]; n = 19) | fractional transfer rate from the liver to plasma, rank order ([2]; n = 19) | fraction present in human plasma following oral administration of green tea [3] [%] | basal-to-apical transport of catechins, rank order ([4]; Caco-2 cell model) | anti-inflammatory activity compared with EGCG [5] | also measured |
| --- | --- | --- | --- | --- | --- | --- | --- | --- | --- | --- | --- |
| 5 | O=C(O[C@@H]1Cc2c(O)cc(O)cc2O[C@@H]1c1ccc(O)c(O)c1)c1cc(O)c(O)c(O)c1 [ECG, epicatechin gallate] | – | EGC > EGCG = EC > ECG | ECG > EC = EGCG > EGC | EGC > EGCG > EC > ECG | EGC = EC > EGCG = ECG | EGC > EC > EGCG = ECG | – | EC > EGC > ECG ≈ EGCG | superior | fractional transfer from the small intestine to the liver ([2]; ECG compared with EC): slower; fractional transfer from kidneys to urine ([2]; ECG vs. EC): slower; fractional transfer rate from the upper gastrointestinal tract to the small intestine ([2]; compared with other catechins): faster |
| 33 | O=C(O[C@@H]1Cc2c(O)cc(O)cc2O[C@@H]1c1cc(O)c(O)c(O)c1)c1cc(O)c(O)c(O)c1 [EGCG, epigallocatechin gallate] | more potent | EGC > EGCG = EC > ECG | ECG > EC = EGCG > EGC | EGC > EGCG > EC > ECG | EGC = EC > EGCG = ECG | EGC > EC > EGCG = ECG | 0.16 | EC > EGC > ECG ≈ EGCG | – | free radical scavenging activity [6]: superior; loss by degradation in alkaline environment of the small intestine compared with ECG and EC [7]: greater loss |
